For 13 compounds, Ki results are on record in ChEMBL document CHEMBL3886909, “7-hydroxy-spiropipiperidine indolinyl antagonists of P2Y1 receptor” (2016).

In test [1] the target is T1, P2Y purinoceptor 1 (Homo sapiens, UniProt P47900). The experiment in a line: Scintillation Proximity Assay (SPA): A SPA membrane binding assay was used to identify inhibitors of [33P] […] Binding reactions were performed in 384-well OptiPlates (PerkinElmer Life Sciences, Cat #6007299) in a volume of 50 uL containing 15 fmol of P2Y1 receptor (1.7 ug of total protein), 0.3 nM [33P] […] Reactions were allowed to proceed to completion at room temperature for 1 hour followed by centrifugation of the plate for 5 min. About 40 uL of the aqueous soluttion was aspirated. Plates were sealed and the [33P]. (In a scintillation proximity assay essentially only radioactivity close to the scintillant gives light.)

Test [2] addresses T1, P2Y purinoceptor 1. The test can be described thus: Binding Assay: Binding reactions were performed in WGA FLASHPLATEs (PerkinElmer Life Sciences, Cat # SMP105A) in a volume of 200 uL containing 45 fmol of P2Y1 receptor (5 ug of total protein), 0.5 nM [33P] […] Reactions were allowed to proceed to completion at room temperature for 1 hour and then the aqueous solution aspirated.

For orientation: Ki means the dissociation constant of the complex between target and ligand, obtained from inhibition or displacement. A higher Ki goes with lower affinity.

T1 sequence (P47900 whole entry): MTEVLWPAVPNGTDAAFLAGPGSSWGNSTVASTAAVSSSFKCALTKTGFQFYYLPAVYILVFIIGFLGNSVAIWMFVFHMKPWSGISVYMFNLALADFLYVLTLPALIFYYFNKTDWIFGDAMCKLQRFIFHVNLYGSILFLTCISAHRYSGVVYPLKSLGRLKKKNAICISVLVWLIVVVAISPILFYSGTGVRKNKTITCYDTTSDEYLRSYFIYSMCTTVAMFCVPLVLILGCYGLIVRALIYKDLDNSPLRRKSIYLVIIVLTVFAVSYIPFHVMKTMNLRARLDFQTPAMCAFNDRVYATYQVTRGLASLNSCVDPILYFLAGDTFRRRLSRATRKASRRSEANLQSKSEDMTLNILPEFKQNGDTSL

Consider `CC(C)(C)CN1CCC2(CC1)CN(c1ccccc1NC(=O)Nc1nc3ccc(F)cc3s1)c1c(O)ccc(-c3nc4ccc(Cl)cc4s3)c12`, for which the Ki in test [1] stood at 104 nM.

Turning to `CC(C)(C)CN1CCC2(CC1)CN(c1ccccc1NC(=O)Nc1ccc(OC(F)(F)F)cc1)c1c(O)ccc(-c3nc4cc(Cl)ccc4s3)c12`, the affinity in test [1], expressed as Ki, was 137 nM.

Turning to `CC(C)(C)CN1CCC2(CC1)CN(c1ccccc1NC(=O)Nc1nc3ccc(Cl)nc3s1)c1c(O)ccc(-c3nc4cc(Cl)ccc4s3)c12`, the Ki in test [1] turned out to be 53.7 nM.

Consider `CC(C)(C)CN1CCC2(CC1)CN(c1ccccc1NC(=O)Nc1csc(Cl)n1)c1c(O)ccc(-c3nc4cc(Cl)ccc4s3)c12`, for which, in test [1], the Ki was determined as 9.1 nM.

The compound `CC(C)(C)CN1CCC2(CC1)CN(c1ccccc1NC(=O)Nc1ccc(OC(F)(F)F)cc1)c1c(O)ccc(-c3nc4ccc(Cl)cc4s3)c12` returned a Ki in test [1] of 73.4 nM.

With `CC(C)(C)CN1CCC2(CC1)CN(c1ccccc1NC(=O)Nc1nc3ccc(Cl)nc3s1)c1c(O)ccc(-c3nc4cc(C(F)(F)F)ccc4s3)c12`, in test [1], affinity was put at a Ki of 24.6 nM.

Compound `CC(C)(C)CN1CCC2(CC1)CN(c1ccccc1NC(=O)Nc1csc(Cl)n1)c1c(O)ccc(-c3nc4cccc(Cl)c4s3)c12` returned a Ki in test [1] of 18.4 nM.

For the compound `CC(C)CN1CCC2(CC1)CN(c1ccccc1NC(=O)Nc1ccc(OC(F)(F)F)cc1)c1c(O)ccc(-c3nc4cc(Cl)ccc4s3)c12`, the Ki in test [1] came to 9.6 nM.

Compound `CC(C)(C)CN1CCC2(CC1)CN(c1ccccc1NC(=O)Nc1nc3ccc(Cl)cc3s1)c1c(O)cc(F)c(Cl)c12` showed a Ki in test [1] of 23.1 nM.

In turn, `CC(C)(C)CN1CCC2(CC1)CN(c1ccccc1NC(=O)Nc1csc(Cl)n1)c1c(O)cc(F)c(Cl)c12` showed a Ki in test [1] of 19 nM.

The compound `CC(C)N1CCC2(CC1)CN(c1ccccc1NC(=O)Nc1ccc(OC(F)(F)F)cc1)c1c(O)ccc(-c3nc4cc(Cl)ccc4s3)c12` showed a Ki in test [1] of 24 nM.

On to `CC(C)(C)CN1CCC2(CC1)CN(c1ccccc1NC(=O)Nc1nc3ccc(F)cc3s1)c1c(O)ccc(-c3nc4cc(Cl)ccc4s3)c12`, for which the affinity in test [1] corresponds to a Ki of 1.2 nM.

For the compound `CC(C)(C)CN1CCC2(CC1)CN(c1ccccc1NC(=O)Nc1ccc(OC(F)(F)F)cc1)c1c(O)cc(F)cc12`, the affinity in test [2] corresponds to a Ki of 9.1 nM.
